In ChEMBL document CHEMBL1135259, “Azapeptides as inhibitors of the hepatitis C virus NS3 serine protease” (Bioorg Med Chem Lett, 2002) one finds k cat data, which are given here for five molecules.

Structures are written as SMILES.

The target of this test is NS3 (Hepatitis C virus) (UniProt A3EZJ3). Kind of test: Binding affinity against Hepatitis C virus NS3 protease was calculated as Kcat. The conditions noted are these: Hepacivirus hominis.
Sequence of NS3 (Hepatitis C virus) (A3EZJ3 as listed by the source): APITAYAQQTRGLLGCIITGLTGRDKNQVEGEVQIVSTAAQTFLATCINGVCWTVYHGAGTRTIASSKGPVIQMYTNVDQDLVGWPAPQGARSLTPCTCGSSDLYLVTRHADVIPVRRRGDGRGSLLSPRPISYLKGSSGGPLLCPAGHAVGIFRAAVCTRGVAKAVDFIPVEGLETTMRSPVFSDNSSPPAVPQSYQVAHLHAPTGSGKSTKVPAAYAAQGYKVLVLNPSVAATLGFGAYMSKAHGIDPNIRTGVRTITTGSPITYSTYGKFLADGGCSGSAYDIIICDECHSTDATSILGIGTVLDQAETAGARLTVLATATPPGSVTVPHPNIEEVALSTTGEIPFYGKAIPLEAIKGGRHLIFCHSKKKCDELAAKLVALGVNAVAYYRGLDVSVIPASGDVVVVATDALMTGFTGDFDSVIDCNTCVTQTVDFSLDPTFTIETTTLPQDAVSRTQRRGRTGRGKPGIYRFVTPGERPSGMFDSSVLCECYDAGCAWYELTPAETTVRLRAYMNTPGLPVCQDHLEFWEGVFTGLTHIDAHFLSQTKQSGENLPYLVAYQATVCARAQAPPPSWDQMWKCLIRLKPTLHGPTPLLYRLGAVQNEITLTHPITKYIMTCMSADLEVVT
Consider `CCCN(NC(=O)[C@H]1CCCN1C(=O)[C@@H](NC(=O)[C@@H](NC(C)=O)C(C)C)C(C)C)C(=O)Oc1ccc([N+](=O)[O-])cc1`, for which the k cat is 0.00667 s⁻¹. Turning to `CCCN(NC(=O)[C@H]1CCCN1C(=O)[C@@H](NC(=O)[C@@H](NC(=O)[C@H](CC(=O)O)NC(C)=O)C(C)C)C(C)C)C(=O)Oc1ccc([N+](=O)[O-])cc1`, the k cat is 0.00833 s⁻¹.

As for `CCCN(NC(=O)[C@H]1CCCN1C(=O)[C@@H](NC(=O)[C@@H](NC(=O)[C@H](CC(=O)O)NC(=O)[C@H](CCC(=O)O)NC(=O)[C@@H](NC(C)=O)[C@@H](C)O)C(C)C)C(C)C)C(=O)Oc1ccc([N+](=O)[O-])cc1`, the k cat was 0.00833 s⁻¹. The result for `CCCN(NC(=O)[C@H]1CCCN1C(=O)[C@@H](NC(=O)[C@@H](NC(=O)[C@H](CC(=O)O)NC(=O)[C@H](CCC(=O)O)NC(C)=O)C(C)C)C(C)C)C(=O)Oc1ccc([N+](=O)[O-])cc1` reads 0.00833 s⁻¹; that for `CCCC(NC(=O)[C@H]1CCCN1C(=O)[C@@H](NC(=O)[C@@H](NC(=O)[C@H](CC(=O)O)NC(=O)[C@H](CCC(=O)O)NC(=O)[C@@H](NC(=O)[C@H](CC(=O)O)NC(C)=O)[C@@H](C)O)C(C)C)C(C)C)C(=O)Oc1ccc([N+](=O)[O-])cc1` (stereo not given in full), 1.67 s⁻¹.
